Patent publication US20250154170A1, “FUSED PYRIMIDINES AS KRAS INHIBITORS” (priority 2022, published 2025)

Experiments:
K-Ras G12D = K-Ras G12D (Homo sapiens, UniProt P01116, G12D); assay: K-Ras G12D activation by SOS1 (KRAS G12D activation by SOS1cat assay, HTRF); assay type: biochemical; details: mean, SOS1cat mediated loading of GST-KRAS G12D-GDP with fluorescent GTP analogue, read-out: K-Ras G12D activation by SOS1 IC50 - [mol/l] (mean)
Procedure: (§1) Preparation of test compound dilutions. A 100-fold concentrated solution of the test compound (50 nL) in DMSO was transferred to microtiter test plates (384 or 1,536 wells, Greiner Bio-One, Germany) using either a Hummingbird liquid handler (Digilab, MA, USA) or an Echo acoustic system (Labcyte, CA, USA). Plates were sealed with adhesive foil or heat-sealed and stored at −20 C until use. Serial dilutions of test compounds were prepared in 100% DMSO using a Precision Pipetting System (BioTek, USA).
(§2) Measurement and evaluation of inhibition data, calculation of IC50 values. Homogeneous time-resolved fluorescence (HTRF) was measured with a PHERAstar reader (BMG, Germany) using the HTRF module (excitation: 337 nm; emission 1: 620 nm, emission 2: 665 nm). The ratio of the emissions at 665 and 620 nm was used as the specific signal for further evaluation. The data were normalized using the controls: DMSO=0% inhibition, inhibition control wells with inhibitor control solution=100% inhibition. Compounds were tested in duplicates at up to 11 concentrations (e.g. 20 μM, 5.7 μM, 1.6 μM, 0.47 μM, 0.13 μM, 38 nM, 11 nM, 3.1 nM, 0.89 nM, 0.25 nM and 0.073 nM). IC50 values were calculated using a four-parameter fit, with a commercial software package (Genedata Screener, Switzerland).
(§3) KRAS^G12C activation by SOS1^cat assay (“On-assay”). This assay quantifies SOS1^cat mediated loading of KRAS^G12C-GDP with a fluorescent GTP analogue. Detection of successful loading was achieved by measuring resonance energy transfer from anti-GST-terbium (FRET donor) bound to GST-KRAS^G12C to the loaded fluorescent GTP analogue (FRET acceptor). The fluorescent GTP analogue EDA-GTP-DY-647P1 [2′/3′-O-(2-aminoethyl-carbamoyl)guanosine-5′-triphosphate labelled with DY-647P1 (Dyomics GmbH, Germany)] was synthesized by Jena Bioscience (Germany) and supplied as a 1 mM aqueous solution. A KRAS^G12C working solution was prepared in assay buffer [10 mM HEPES pH 7.4 (AppliChem), 150 mM NaCl (Sigma), 5 mM MgCl2 (Sigma), 1 mM DTT (Thermo Fisher), 0.05% BSA Fraction V pH 7.0 (ICN Biomedicals), 0.0025% (v/v) Igepal (Sigma)] containing GST-KRAS^G12C (final concentration in assay 50 nM) and anti-GST-terbium (Cisbio, France) (final concentration in assay 1 nM). A SOS1^cat working solution was prepared in assay buffer containing SOS1^cat (final concentration 10 nM) and EDA-GTP-DY-647P1 (final concentration 100 nM). An inhibitor control solution was prepared in assay buffer containing EDA-GTP-DY-647P1 (final concentration 100 nM) without SOS1^cat. All steps of the assay were performed at 20° C. A volume of 3 μL of the KRAS^G12C working solution was added to all wells of the test plate using a Multidrop dispenser (Thermo LabSystems). After 15 min, 2 μL of the SOS1^ct working solution was added to all wells, except for the inhibitor control solution wells. After 30 min incubation, HTRF was measured.
(§4) G12D and Wild-type KRAS activation by SOS1cat assays. These assays quantify human SOS1^cat mediated loading of wild-type GST-KRAS^WT-GDP or GST-KRAS^G12D-GDP with a fluorescent GTP analogue. The assay was performed similarly to the KRAS^G12C activation by SOS1^cat assay with the following differences: final concentration of SOS1^cat of 60 nM and final incubation time before measurement of 10 min for KRAS^G12D assay, final concentration of SOS1^cat of 20 nM and final incubation time before measurement of 15 min for wild-type KRAS assay, respectively. GST-KRAS^G12C was replaced by GST-KRAS^WT or GST-KRAS^G12D, respectively, also at 50 nM final concentration.
KRAS^G12D activation by SOS1^cat assay (“On-assay”). This assay quantifies SOS1^cat mediated loading of KRAS^G12D-GDP with a fluorescent GTP analogue. Detection of successful loading was achieved by measuring resonance energy transfer from anti-GST-terbium (FRET donor) bound to GST-KRAS^G12D to the loaded fluorescent GTP analogue (FRET acceptor).

K-Ras-wildtype = K-Ras-wildtype (Homo sapiens, UniProt P01116); assay: K-Ras-wildtype activation by SOS1 (wild-type KRAS activation by SOS1cat assay, HTRF); assay type: biochemical; details: mean, SOS1cat mediated loading of wild-type GST-KRAS-GDP with fluorescent GTP analogue, read-out: K-Ras-wildtype activation by SOS1 IC50 - [mol/l] (mean)
Procedure: as §1, §2, §3, §4
Wild-type KRAS activation by SOS1^cat assay. This assay quantifies human SOS1^cat mediated loading of wild-type GST-KRAS-GDP with a fluorescent GTP analogue. The assay was performed similarly to the KRAS^G12D activation by SOS1^cat assay just by replacement of GST-KRAS^G12D by wild-type GST-KRAS while concentrations of all components and incubation times were the same.

K-Ras G12D, sequence (P01116 1-188 isoform P01116-2 G12D): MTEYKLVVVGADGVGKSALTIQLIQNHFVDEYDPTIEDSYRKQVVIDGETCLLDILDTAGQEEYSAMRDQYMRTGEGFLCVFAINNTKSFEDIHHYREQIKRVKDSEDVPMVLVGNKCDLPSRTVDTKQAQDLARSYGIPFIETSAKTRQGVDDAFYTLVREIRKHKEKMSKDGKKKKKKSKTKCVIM
K-Ras-wildtype, sequence (P01116 1-188 isoform P01116-2): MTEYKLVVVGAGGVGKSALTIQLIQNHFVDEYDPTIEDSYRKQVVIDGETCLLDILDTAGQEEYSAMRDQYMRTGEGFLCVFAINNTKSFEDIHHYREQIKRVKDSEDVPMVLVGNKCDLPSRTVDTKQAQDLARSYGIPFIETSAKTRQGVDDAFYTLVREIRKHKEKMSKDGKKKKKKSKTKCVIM

Compound | IC50 (K-Ras G12D) | IC50 (K-Ras-wildtype)
Cn1c(Oc2cc(O)cc3cccc(F)c23)nc2c(N3CC4CCC(C3)N4)nc(OCC34CCCN3CCC4)nc21 [Example 8, 4-({6-(3,8-diazabicyclo[3.2.1]octan-3-yl)-9-methyl-2-[(tetrahydro-1H-pyrrolizin-7a(5H)-yl)methoxy]-9H-purin-8-yl}oxy)-5-fluoronaphthalen-2-ol] | > 20000 nM | > 20000 nM
Cn1c(Oc2cc(O)cc3ccccc23)nc2c(N3CC4CCC(C3)N4)nc(OCC34CCCN3CCC4)nc21 [Example 9, 4-({6-(3,8-diazabicyclo[3.2.1]octan-3-yl)-9-methyl-2-[(tetrahydro-1H-pyrrolizin-7a(5H)-yl)methoxy]-9H-purin-8-yl}oxy)naphthalen-2-ol] | > 20000 nM | > 20000 nM
Oc1cc(Oc2nc3c(N4CC5CCC(C4)N5)nc(OCC45CCCN4CCC5)nc3[nH]2)c2ccccc2c1 [Example 10, 4-({6-(3,8-diazabicyclo[3.2.1]octan-3-yl)-2-[(tetrahydro-1H-pyrrolizin-7a(5H)-yl)methoxy]-9H-purin-8-yl}oxy)naphthalen-2-ol] | > 20000 nM | > 20000 nM
Oc1cc(Oc2nc3c(N4CC5CCC(C4)N5)nc(OCC45CCCN4CCC5)nc3[nH]2)c2c(F)cccc2c1 [Example 11, 4-({6-(3,8-diazabicyclo[3.2.1]octan-3-yl)-2-[(tetrahydro-1H-pyrrolizin-7a(5H)-yl)methoxy]-9H-purin-8-yl}oxy)-5-fluoronaphthalen-2-ol] | > 20000 nM | > 20000 nM
C#Cc1c(F)ccc2cc(O)cc(Oc3nc4c(N5CC6COCC(C5)N6)nc(OC[C@@]56CCCN5C[C@H](F)C6)nc4s3)c12 [Example 12, 5-ethynyl-6-fluoro-4-{[5-{[(2R,7aS)-2-fluorotetrahydro-1H-pyrrolizin-7a(5H)-yl]methoxy}-7-(3-oxa-7,9-diazabicyclo[3.3.1]nonan-7-yl)[1,3]thiazolo[5,4-d]pyrimidin-2-yl]oxy}naphthalen-2-ol] | 23.7 nM | 15.8 nM
C#Cc1c(F)ccc2cc(O)cc(Oc3nc4c(N5CC6COCC(C5)N6)nc(OCC56CCCN5CCC6)nc4s3)c12 [Example 13, 5-ethynyl-6-fluoro-4-({7-(3-oxa-7,9-diazabicyclo[3.3.1]nonan-7-yl)-5-[(tetrahydro-1H-pyrrolizin-7a(5H)-yl)methoxy][1,3]thiazolo[5,4-d]pyrimidin-2-yl}oxy)naphthalen-2-ol] | 25.6 nM | 15.3 nM
Oc1cc(Cc2nc3c(N4CC5CCC(C4)N5)nc(OCC45CCCN4CCC5)nc3s2)c2c(F)cccc2c1 [Example 14, 4-({7-(3,8-diazabicyclo[3.2.1]octan-3-yl)-5-[(tetrahydro-1H-pyrrolizin-7a(5H)-yl)methoxy][1,3]thiazolo[5,4-d]pyrimidin-2-yl}methyl)-5-fluoronaphthalen-2-ol] | 635 nM | > 20000 nM
Oc1cc(Oc2nc3c(N4CC5CCC(C4)N5)nc(OCC45CCCN4CCC5)nc3s2)c2c(Cl)cccc2c1 [Example 15, Formic acid-5-Chlor-4-{[7-(3,8-diazabicyclo[3.2.1]octan-3-yl)-5-(tetrahydro-1H-pyrrolizin-7a(5H)-ylmethoxy)[1,3]thiazolo[5,4-d]pyrimidin-2-yl]oxy}-2-naphthol (2:1)] | 35.3 nM | 1070 nM
C=Cc1c(F)ccc2cc(O)cc(Oc3nc4c(N5CC6CCC(C5)N6)nc(OC[C@@]56CCCN5C[C@H](F)C6)nc4s3)c12 [Example 17, 4-{[7-(3,8-diazabicyclo[3.2.1]octan-3-yl)-5-{[(2R,7aS)-2-fluorotetrahydro-1H-pyrrolizin-7a(5H)-yl]methoxy}[1,3]thiazolo[5,4-d]pyrimidin-2-yl]oxy}-5-ethenyl-6-fluoronaphthalen-2-ol] | 13.4 nM | 425 nM
Cn1c(Oc2cc(O)cc3ccccc23)nc2nc(OCC34CCCN3CCC4)nc(N3CC4CCC(C3)N4)c21 [Example 18, 4-({6-(3,8-diazabicyclo[3.2.1]octan-3-yl)-7-methyl-2-[(tetrahydro-1H-pyrrolizin-7a(5H)-yl)methoxy]-7H-purin-8-yl}oxy)naphthalen-2-ol] | 15300 nM | > 20000 nM
C#Cc1c(F)ccc2cc(O)cc(Oc3nc4c(N5CC6COCC(C5)N6)nc(OC[C@@]56CCCN5C[C@H](F)C6)nc4s3)c12 [Example 19, 5-ethynyl-6-fluoro-4-{[5-{[(2R,7aS)-2-fluorotetrahydro-1H-pyrrolizin-7a(5H)-yl]methoxy}-7-(3-oxa-7,9-diazabicyclo[3.3.1]nonan-7-yl)[1,3]thiazolo[5,4-d]pyrimidin-2-yl]oxy}naphthalen-2-ol] | 14.3 nM | 10.7 nM
C#Cc1c(F)ccc2cc(O)cc(Oc3nc4nc(OCC56CCCN5CCC6)nc(N5CC6CCC(C5)N6)c4n3C)c12 [Example 22, 4-({6-(3,8-diazabicyclo[3.2.1]octan-3-yl)-7-methyl-2-[(tetrahydro-1H-pyrrolizin-7a(5H)-yl)methoxy]-7H-purin-8-yl}oxy)-5-ethynyl-6-fluoronaphthalen-2-ol] | 89.5 nM | > 20000 nM
C#Cc1c(Cl)ccc2cc(O)cc(Oc3nc4c(N5CC6CCC(C5)N6)nc(OC[C@@]56CCCN5C[C@H](F)C6)nc4s3)c12 [Example 23, 6-chloro-4-{[7-(3,8-diazabicyclo[3.2.1]octan-3-yl)-5-{[(2R,7aS)-2-fluorotetrahydro-1H-pyrrolizin-7a(5H)-yl]methoxy}[1,3]thiazolo[5,4-d]pyrimidin-2-yl]oxy}-5-ethynylnaphthalen-2-ol] | 4.9 nM | 95 nM
Oc1cc(Nc2nc3c(N4CC5CCC(C4)N5)nc(OC[C@@]45CCCN4C[C@H](F)C5)nc3s2)c2ccccc2c1 [Example 28, 4-{[7-(3,8-diazabicyclo[3.2.1]octan-3-yl)-5-{[(2R,7aS)-2-fluorotetrahydro-1H-pyrrolizin-7a(5H)-yl]methoxy}[1,3]thiazolo[5,4-d]pyrimidin-2-yl]amino}naphthalen-2-ol] | 1410 nM | > 20000 nM
CN(c1nc2c(N3CC4CCC(C3)N4)nc(OC[C@@]34CCCN3C[C@H](F)C4)nc2s1)c1cc(O)cc2ccccc12 [Example 29, 4-{[7-(3,8-diazabicyclo[3.2.1]octan-3-yl)-5-{[(2R,7aS)-2-fluorotetrahydro-1H-pyrrolizin-7a(5H)-yl]methoxy}[1,3]thiazolo[5,4-d]pyrimidin-2-yl](methyl)amino}naphthalen-2-ol] | 284 nM | 11900 nM
Oc1cc(Nc2nc3c(N4CC5COCC(C4)N5)nc(OC[C@@]45CCCN4C[C@H](F)C5)nc3s2)c2ccccc2c1 [Example 30, 4-{[5-{[(2R,7aS)-2-fluorotetrahydro-1H-pyrrolizin-7a(5H)-yl]methoxy}-7-(3-oxa-7,9-diazabicyclo[3.3.1]nonan-7-yl) [1,3]thiazolo[5,4-d]pyrimidin-2-yl]amino}-2-naphthol] | 10600 nM | 7610 nM
